Laboratory results as given in patent US8609342B2, “Reporter gene assay method” (Otsuka Pharmaceutical Co., Ltd., priority 2001, dated 2013).

Columns and labels:
[1] = biological target: T1, androgen receptor (Homo sapiens, UniProt P10275); assay: Reporter gene assay for androgen receptor antagonist detection (luciferase activity); assay type: cell-based; settings: for antagonistic activity against the androgen receptor (judgment): judged from luciferase activity with EGFP activity as indication of cytotoxicity
T1 construct: expressed in transfected cells; host or cells: CHO-K1 cells, transiently transfected with pZeoSV2-AR, pIND ARE-B10 and pcDNA-EGFP
T1 sequence (P10275 1-920): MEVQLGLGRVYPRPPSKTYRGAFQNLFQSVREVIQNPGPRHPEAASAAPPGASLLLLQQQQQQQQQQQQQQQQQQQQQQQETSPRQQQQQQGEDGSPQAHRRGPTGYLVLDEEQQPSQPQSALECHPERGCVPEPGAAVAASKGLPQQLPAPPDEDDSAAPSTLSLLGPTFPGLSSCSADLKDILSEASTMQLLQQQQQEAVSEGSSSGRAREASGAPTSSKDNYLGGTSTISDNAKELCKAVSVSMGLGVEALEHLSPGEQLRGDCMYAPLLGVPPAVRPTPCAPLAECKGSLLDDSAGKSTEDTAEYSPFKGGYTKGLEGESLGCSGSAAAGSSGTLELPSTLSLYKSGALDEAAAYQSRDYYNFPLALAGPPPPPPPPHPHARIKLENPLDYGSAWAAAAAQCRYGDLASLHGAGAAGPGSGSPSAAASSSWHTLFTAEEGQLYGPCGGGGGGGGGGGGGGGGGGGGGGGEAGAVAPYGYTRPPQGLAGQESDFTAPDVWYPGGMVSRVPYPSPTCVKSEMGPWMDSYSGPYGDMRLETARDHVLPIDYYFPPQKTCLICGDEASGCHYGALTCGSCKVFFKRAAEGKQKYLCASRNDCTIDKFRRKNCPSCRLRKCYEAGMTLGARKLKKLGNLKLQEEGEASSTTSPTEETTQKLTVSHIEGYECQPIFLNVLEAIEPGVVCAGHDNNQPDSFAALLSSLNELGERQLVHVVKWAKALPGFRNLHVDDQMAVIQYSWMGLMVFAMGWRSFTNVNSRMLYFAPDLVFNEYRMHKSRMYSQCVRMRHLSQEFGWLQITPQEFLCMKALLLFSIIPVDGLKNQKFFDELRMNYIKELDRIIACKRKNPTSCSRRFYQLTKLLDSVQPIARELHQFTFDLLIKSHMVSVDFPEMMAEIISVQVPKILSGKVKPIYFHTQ
Procedure: (§1) First, each test substance is dissolved in DMSO to a concentration of 10^−3 M, and the solution was 10-fold diluted stepwise (serial dilution) to give diluted test sample solutions having a test substance concentration of 10^−3 M to 10^−9 M. Then, each diluted sample solution was 100-fold diluted using a solution prepared by adding 5×10^−9 M) of 5α-dehydrotestosterone to DEMEM/F-12 medium (Gibco) (the test substance concentration becoming 10^−5 M to 10^−11 M).
(§2) CHO-K1 cells were developed on a 96-well plate to a size of about 8000 cells/84 μL of medium per well.
(§3) Separately, a solution for transfection was prepared by diluting 1 ng of pZeoSV-2-AR (prepared above in (1)), 50 ng of pIND ARE-B10 (prepared above in (2)) and 4 ng of pcDNA-EGFP (prepared above in (3)) with 6.25 μL of DMEM/F-12 medium and adding 0.15 μL of FuGENE6™ (Roche) to the dilution.
(§4) On the day after the above development, 6 μL/well of the solution for transfection was added to each well for transfection of the cells in each well (the cell culture fluid volume in each well being about 90 μL). Three hours later, each of serial 10-fold dilutions of each test sample (generally 10^−5 M to 10^−11 M) as prepared using the above-prepared medium (DMEM/F-12) supplemented with 5×10^−9 M of 5a-dehydrotestosterone was added in 10 μL portions, and cultivation was continued at room temperature (the final test substance concentrations: 10^−6 M to 10^−12 M).
(§5) In FIGS. 5 and 6, the ordinate denotes the cell survival rate (%) (the relative EGFP fluorescence intensity value at each test substance concentration as determined by taking the EGFP fluorescence intensity value measured without addition of the test substance as 100; shown by curve (1)) as well as the luciferase activity percentage (shown by curve (2)). The abscissa denotes the test substance concentration (M).

[2] = test system: CHO-K1 cells; assay type: cell-based, hamster
Procedure: as §1, §2, §3, §4
At 24 hours after addition of the serial dilutions of the test sample, the GFP fluorescence intensity in each well was measured at the excitation wavelength of 485 nm and fluorescence wavelength of 535 nm using Berthord's ARVO.
as §5

[3] = test system: CHO-K1 cells; assay type: cell-based; settings: Chinese hamster, 24 h
Procedure: CHO-K1 cells (cells deposited with ATCC) were developed on a 96-well plate (8000 cells/well). On the next day, transfection was carried in each well with 50 ng/well of pGL3-Control (retaining the SV40 promoter and containing the luciferase gene; Promega) and 4 ng/well of pcDNA-EGFP using 0.15 μL of FuGENE6™ (Roche) (at room temperature).
To each well of the cells of the invention as prepared as described above under (4), 3 hours after transfection, DMSO was added to a final concentration of 0.125, 0.25, 1, 2, 4 or 10%.
After 24 hours following the addition of DMSO, the fluorescence intensity of EGFP expressed in each well was measured using Berthord's measuring apparatus ARVO. Immediately thereafter, the luciferase activity was measured using Steady-Glo™ (Promega) as a substrate and using Berthord's measuring apparatus ARVO.
(§6) In FIG. 4, the ordinate denotes the relative survival rate (%) (the relative measurement result value at each DMSO concentration with the measurement result in each test carried out without addition of DMSO being taken as 100), and the abscissa denotes the DMSO concentration (%).

[4] = test system: CHO-K1 cells; assay: MTT assay of CHO-K1 cells with pGL3-Control alone, in the presence of DMSO (comparison); assay type: cell-based, hamster; settings: 24 hours of culture with DMSO; relative to no DMSO = 100
Procedure: For comparison, the following MTT assay and AlamarBlue assay were carried out using the respective assay kits. Thus, CHO-K1 cells with pGL3-Control alone introduced therein were used in lieu of the above-prepared cells, DMSO was added to each well to the same concentration as mentioned above and, after 24 hours of culture, the MTT assay was carried out. The MTT measurement was performed as indicated in the manual attached to the product.
as §6

Row | SMILES | antagonistic activity against the androgen receptor (judgment) [1] | cytotoxic effect [2] | further results
1 | O=[N+]([O-])c1ccc(Oc2c(Cl)cc(Cl)cc2Cl)cc1 [CNP, chloronirophen] | has an antagonistic activity against the androgen receptor | any cytotoxic effect will not manifest itself | –
2 | C[S+](C)[O-] [DMSO, dimethyl sulfoxide] | – | – | DMSO concentration from which decreases in luciferase activity are observed [3]: about 0.25%; DMSO concentration at which a decrease in MTT activity is first observed [4]: ≥ 4%
3 | CC(=O)O[C@]1(C(C)=O)CC[C@H]2[C@@H]3C=C(Cl)C4=CC(=O)[C@@H]5C[C@@H]5[C@]4(C)[C@H]3CC[C@@]21C [cyproterone acetate, Cyproterone acetate] | – | no cytotoxic effect was observed | EGFP activity (cell survival rate) ([2]; Chinese hamster, 24 h): ~100%
4 | CC1(C)CNC(=NN=C(/C=C/c2ccc(C(F)(F)F)cc2)/C=C/c2ccc(C(F)(F)F)cc2)NC1 [hydramethylnone, Hydramethylnone] | no antagonistic activity | – | luciferase activity ([1]; with 5×10^−9 M 5α-dehydrotestosterone, 24 hours after addition of test substance): decreases in luciferase activity were due to cytotoxicity
